# Reference: patent publication US20170008928A1, “NOVEL PEPTIDES AND PEPTIDE DERIVATIVES AND USES THEREOF” (Novo Nordisk A/S, priority 2015, published 2017)
# Where two headings read alike, the source gives them in different places. Non-standard residues stand in square brackets, D forms with d. Residues, ends and D or L forms follow the SMILES beside them. Phe(4-CH2SO3H) = N[C@@H](Cc1ccc(CS(=O)(=O)O)cc1)C(=O)O; sY = N[C@@H](Cc1ccc(OS(=O)(=O)O)cc1)C(=O)O; NMeF = CN[C@@H](Cc1ccccc1)C(=O)O; dNMeD = CN[C@H](CC(=O)O)C(=O)O; Nle = CCCC[C@H](N)C(=O)O
# What was measured:
# [1] = target: T1, human cholecystokinin-2 receptor (CCK-2R) (Homo sapiens, UniProt P32239); test: In vitro potency on CCK-2R, whole cell functional assay (IP1 accumulation, IP-One HTRF); assay type: cell-based
# T1 construct: host or cells: 1321-N1 cells (plasma membranes prepared by Evotec AG Hamburg)
# T1 sequence (P32239 1-447): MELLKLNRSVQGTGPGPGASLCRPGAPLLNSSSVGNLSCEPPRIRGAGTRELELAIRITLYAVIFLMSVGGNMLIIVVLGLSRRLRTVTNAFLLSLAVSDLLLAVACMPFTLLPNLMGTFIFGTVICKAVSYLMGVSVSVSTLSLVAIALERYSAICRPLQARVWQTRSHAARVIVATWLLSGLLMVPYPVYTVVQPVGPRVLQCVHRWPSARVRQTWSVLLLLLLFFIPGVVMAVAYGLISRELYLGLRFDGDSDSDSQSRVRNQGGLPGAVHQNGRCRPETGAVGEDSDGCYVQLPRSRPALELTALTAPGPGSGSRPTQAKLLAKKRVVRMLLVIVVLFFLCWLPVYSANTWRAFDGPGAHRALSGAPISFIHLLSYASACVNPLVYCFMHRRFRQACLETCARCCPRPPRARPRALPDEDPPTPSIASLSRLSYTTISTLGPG
# [2] = target: T1, human cholecystokinin-2 receptor (CCK-2R); test: In vitro receptor binding to CCK-2R, SPA displacement of [125I]-CCK-8s from plasma membranes
# Experimental: The in vitro binding affinity is a measure of the strength of attraction between a receptor and its ligand.
# Displacement of radio ligand was measured as reduction in light emission from SPA beads.
# The cells used in these assays were 1321-N1 cells stably expressing the CCK-1R or the CCK-2R (Perkin Elmer product numbers ES-530-A and ES-531-A, respectively see www.perkinelmer.com/Catalog/Product/ID/ES-530-A or -ES-531-A, respectively).
# The cells were cultured in an incubator (95% RH (relative humidity), 5% (of standard atmospheric pressure) CO2, 37° C.) in cell culture medium (DMEM (Lonza catalogue BE-12-604F/U1), with 10% (v/v) Foetal Calf Serum (FCS, Gibco catalogue 16140-071), 1% (w/w) Sodium pyruvate (Gibco catalogue 11360-039), 500 μg/ml Geneticin® (G418) (Gibco catalogue 10131-027), 25 μg/ml Zeocin™ (Invitrogen catalogue R250-05), 1% (w/w) Pen/Strep (Gibco catalogue 15140-122)).
# Plasma membranes were prepared by Evotec AG Hamburg by use of the ParrBomb (#4635, Parr Instrument Company). Cells were lysed with a lysis buffer (50 mM Tris, 2.5 mM EDTA, pH7) with added protease inhibitors (Complete Proteaseinhibitors EDTA-free (#05056489001, Roche), 1 tablet per 50 mL lysis buffer). The membrane fraction was separated by centrifugation. First, the cell lysate was centrifuged at 1000×g for 10 minutes at 4° C. The pellet was discarded and the supernatant was then centrifuged at 100.000×g for 30 minutes at 4° C. The supernatant was discarded and the pellet was re-suspended in 1 ml/5×10^8 cells ice cold membrane buffer (50 mM Tris, 320 mM Sucrose and Complete Proteaseinhibitors EDTA-free (#05056489001, Roche); pH7.4) and homogenised with dounce homogeniser. The protein concentration was determined using the Pierce™ BCA Protein Assay Kit according to kit manual, and the membrane preparation was adjust to the desired protein concentration with membrane buffer and aliquoted into pre-cooled tubes, snap-frozen in liquid nitrogen, and stored at −80° C.
# CCK receptor binding assays were performed in 96-well Optiplates (Cat #6005290, PerkinElmer, Waltham, Mass., USA) in a total volume of 200 μl per well. CCK derivatives in 80% DMSO stock solutions of 800 μM were serially diluted […] in assay buffer (50 mM Tris/HCl, 4.5 mM MgCl2, […], 0.02% Tween 20, 0.25% ovalbumin, 0.1% pluronic F-68, pH 7.4) to final assay concentrations ranging from 10^−5 M (ten μM) to 10^−12 M (one pM).
# Fifty μl of reference or test compounds were added to the Optiplates (using technical duplicates, i.e. two wells of each sample, one data point being the average of two wells), followed by addition of 150 μl of the mixture of SPA bead, radio ligand, and plasma membrane. The plates were sealed and incubated in the dark at +22° C. for 2 hours on a IKA MTS plate shaker (IKA-Werke D-79219 Staufen) set at 300 rpm and thereafter centrifuged at 1500 rpm for 10 minutes in a Heraeus Multifuge 3s centrifuge. SPA bead light emission was measured in a TopCount NXT (PerkinElmer) for 2 min/well after a delay of 60 min.
# As a measure of compound affinity, calculations were performed in order to determine the half maximal inhibitory concentration (the IC50 value).
# The data from the TopCounter were given as counts per minute (CPM). The CPM was plotted as a function of the concentration of compound. Dose-response curves were obtained, and IC50 values were calculated, by a nonlinear three-parameter logistic equation (log(agonist) vs response) with hillslope=−1, and shared top and bottom using the software programme GraphPad Prism v 6.0 (Graph Pad software, La Jolla, Calif., USA). The highest dose tested was 10^−5 M (1×10^7 pM).
# The preference of a specific compound for the CCK-1 receptor, or the CCK-1R selectivity, may be defined as IC50 (CCK-2R)/IC50 (CCK-1R).
# A minimum of three biological replicates was measured for each test compound on separate assay plates.
# [3] = 1321-N1 cells stably expressing CCK-2R, IP1 accumulation, highest dose tested 1×10^6 pM, read-out: EC50 (CCK-2R)
# [4] = displacement of [125I]-CCK-8s, plasma membranes of 1321-N1 cells expressing CCK-2R, highest dose tested 1×10^7 pM, read-out: IC50 (CCK-2R)
"EC50 [1, 3]","IC50 [2, 4]",SMILES,EC50 [1],IC50 [2]
110 nM,0.48 µM,"CCCC[C@H](NC(=O)[C@H](Cc1c[nH]c2ccccc12)NC(=O)CNC(=O)[C@H](CC(C)C)NC(=O)[C@H](Cc1ccc(OS(=O)(=O)O)cc1)NC(=O)[C@H](CC(=O)O)NC(=O)COCCOCCNC(=O)COCCOCCNC(=O)COCCOCCNC(=O)COCCOCCNC(=O)CC[C@H](NC(=O)CCCCCCCCCCCCCCCCC(=O)O)C(=O)O)C(=O)N(C)[C@H](CC(=O)O)C(=O)N(C)[C@@H](Cc1ccccc1)C(N)=O [Example 31, 2-[2-[2-[[2-[2-[2-[[2-[2-[2-[[2-[2-[2-[[(4S)-4-Carboxy-4-(17-carboxyheptadecanoylamino)butanoyl]amino]ethoxy]ethoxy]acetyl]amino]ethoxy]ethoxy]acetyl]amino]ethoxy]ethoxy]acetyl]amino]ethoxy]ethoxy]acetyl-Asp-sTyr-Leu-Gly-Trp-Nle-DMeAsp-MePhe-amide]",–,–
46 nM,0.38 µM,"CCCC[C@H](NC(=O)[C@H](Cc1c[nH]c2ccccc12)NC(=O)CNC(=O)[C@H](CC(C)C)NC(=O)[C@H](Cc1ccc(OS(=O)(=O)O)cc1)NC(=O)[C@H](CC(=O)O)NC(=O)CC[C@H](NC(=O)COCCOCCNC(=O)COCCOCCNC(=O)CC[C@H](NC(=O)CCCCCCCCCCCCCCCCC(=O)O)C(=O)O)C(=O)O)C(=O)N(C)[C@H](CC(=O)O)C(=O)N(C)[C@@H](Cc1ccccc1)C(N)=O [Example 32, (4S)-4-Carboxy-4-[[2-[2-[2-[[2-[2-[2-[[(4S)-4-carboxy-4-(17-carboxyheptadecanoylamino)butanoyl]amino]ethoxy]ethoxy]acetyl]amino]ethoxy]ethoxy]acetyl]amino]butanoyl-Asp-sTyr-Leu-Gly-Trp-Nle-DMeAsp-MePhe-amide]",–,–
> 1000 nM,> 10 µM,"CC(C)C[C@H](NC(=O)[C@H](Cc1ccc(OS(=O)(=O)O)cc1)NC(=O)[C@H](CCC(=O)O)NC(=O)COCCOCCNC(=O)COCCOCCNC(=O)CC[C@H](NC(=O)CCCCCCCCCCCCCCCCC(=O)O)C(=O)O)C(=O)NCC(=O)N[C@@H](Cc1c[nH]c2ccccc12)C(=O)N[C@@H](CCC(N)=O)C(=O)N(C)[C@H](CC(=O)O)C(=O)N[C@@H](Cc1ccccc1)C(N)=O [Example 41, 2-[2-[2-[[2-[2-[2-[[(4S)-4-Carboxy-4-(17-carboxyheptadecanoylamino)butanoyl]amino]ethoxy]ethoxy]acetyl]amino]ethoxy]ethoxy]acetyl-Glu-sTyr-Leu-Gly-Trp-Gln-DMeAsp-Phe-amide]",–,–
> 1000 nM,> 10 µM,"CCCC[C@H](NC(=O)[C@H](Cc1c[nH]c2ccccc12)NC(=O)CNC(=O)[C@H](CC(C)C)NC(=O)[C@H](Cc1ccc(CS(=O)(=O)O)cc1)NC(=O)[C@@H](N)CC(=O)O)C(=O)N(C)[C@H](CC(=O)O)C(=O)N(C)[C@@H](Cc1ccccc1)C(N)=O [Example 57, Asp-Phe(4-sulfomethyl)-Leu-Gly-Trp-Nle-DMeAsp-MePhe-amide] (H-D[Phe(4-CH2SO3H)]LGW[Nle][dNMeD][NMeF]-NH2)",–,–
–,–,"CC[C@H](C)[C@H](NC(=O)[C@H](Cc1c[nH]c2ccccc12)NC(=O)CNC(=O)[C@H](CC(C)C)NC(=O)[C@H](Cc1ccc(OS(=O)(=O)O)cc1)NC(=O)[C@@H](N)CC(=O)O)C(=O)N(C)[C@H](CC(=O)O)C(=O)N(C)[C@@H](Cc1ccccc1)C(N)=O [Example 61, Asp-sTyr-Leu-Gly-Trp-Ile-DMeAsp-MePhe-amide] (H-D[sY]LGWI[dNMeD][NMeF]-NH2)",> 1000 nM,6.1 µM
–,–,"CC(C)C[C@H](NC(=O)[C@H](Cc1ccc(OS(=O)(=O)O)cc1)NC(=O)[C@@H](N)CC(=O)O)C(=O)NCC(=O)N[C@@H](Cc1c[nH]c2ccccc12)C(=O)N1CCC[C@H]1C(=O)N(C)[C@H](CC(=O)O)C(=O)N(C)[C@@H](Cc1ccccc1)C(N)=O [Example 66, Asp-sTyr-Leu-Gly-Trp-Pro-DMeAsp-MePhe-amide] (H-D[sY]LGWP[dNMeD][NMeF]-NH2)",> 1000 nM,> 10 µM
> 1000 nM,> 10 µM,"CCCC[C@H](NC(=O)[C@H](Cc1c[nH]c2ccccc12)NC(=O)CNC(=O)[C@H](CCCCN)NC(=O)[C@H](Cc1ccc(OS(=O)(=O)O)cc1)NC(=O)[C@@H](N)CC(=O)O)C(=O)N(C)[C@H](CC(=O)O)C(=O)N(C)[C@@H](Cc1ccccc1)C(N)=O [Example 67, Asp-sTyr-Lys-Gly-Trp-Nle-DMeAsp-MePhe-amide] (H-D[sY]KGW[Nle][dNMeD][NMeF]-NH2)",–,–
> 1000 nM,> 10 µM,"CCCC[C@H](NC(=O)[C@@H](N)Cc1ccc(OS(=O)(=O)O)cc1)C(=O)NCC(=O)N[C@@H](Cc1c[nH]c2ccccc12)C(=O)N[C@@H](CCCC)C(=O)N(C)[C@H](CC(=O)O)C(=O)N(C)[C@@H](Cc1ccccc1)C(N)=O [Example 72, sTyr-Nle-Gly-Trp-Nle-DMeAsp-MePhe-amide] (H-[sY][Nle]GW[Nle][dNMeD][NMeF]-NH2; N-terminus assumed)",–,–
> 1000 nM,> 10 µM,"CCCC[C@H](NC(=O)[C@H](Cc1c[nH]c2ccccc12)NC(=O)CNC(=O)[C@@H](NC(=O)[C@H](Cc1ccc(OS(=O)(=O)O)cc1)NC(=O)[C@@H](N)CC(=O)O)[C@@H](C)CC)C(=O)N(C)[C@H](CC(=O)O)C(=O)N(C)[C@@H](Cc1ccccc1)C(N)=O [Example 81, Asp-sTyr-Ile-Gly-Trp-Nle-DMeAsp-MePhe-amide] (H-D[sY]IGW[Nle][dNMeD][NMeF]-NH2)",–,–
> 1000 nM,> 10 µM,"CCCC[C@H](NC(=O)[C@H](Cc1c[nH]c2ccccc12)NC(=O)CNC(=O)[C@H](Cc1c[nH]cn1)NC(=O)[C@H](Cc1ccc(OS(=O)(=O)O)cc1)NC(=O)[C@@H](N)CC(=O)O)C(=O)N(C)[C@H](CC(=O)O)C(=O)N(C)[C@@H](Cc1ccccc1)C(N)=O [Example 82, Asp-sTyr-His-Gly-Trp-Nle-DMeAsp-MePhe-amide] (H-D[sY]HGW[Nle][dNMeD][NMeF]-NH2)",–,–
> 1000 nM,> 10 µM,"CC(C)C[C@H](NC(=O)[C@H](Cc1ccc(OS(=O)(=O)O)cc1)NC(=O)[C@@H](N)CCC(=O)O)C(=O)NCC(=O)N[C@@H](Cc1c[nH]c2ccccc12)C(=O)N[C@@H](CCC(N)=O)C(=O)N(C)[C@H](CC(=O)O)C(=O)N[C@@H](Cc1ccccc1)C(N)=O [Example 85, Glu-sTyr-Leu-Gly-Trp-Gln-DMeAsp-Phe-amide]",–,–
> 1000 nM,> 10 µM,"CC(C)C[C@H](NC(=O)[C@H](Cc1ccc(OS(=O)(=O)O)cc1)NC(=O)[C@@H](N)CCC(=O)O)C(=O)NCC(=O)N[C@@H](Cc1c[nH]c2ccccc12)C(=O)N[C@@H](CCC(N)=O)C(=O)N(C)[C@H](CC(=O)O)C(=O)N(C)[C@@H](Cc1ccccc1)C(N)=O [Example 86, Glu-sTyr-Leu-Gly-Trp-Gln-DMeAsp-MePhe-amide]",–,–
